In patent publication US8476298B2 (Exelixis, Inc., priority 2003, dated 2013):

How the values were obtained:
[1] = molecular target: T1, c-Met (baculovirus expressed human c-Met kinase domain P948-S1343) (Homo sapiens, UniProt P08581); test: c-Met Luciferase-Coupled Chemiluminescent Kinase assay (LCCA); type: biochemical; conditions: Table 4, inhibition as IC50 class;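 note: kinase activity read as percent ATP left after reaction, by luciferase-luciferin chemiluminescence, with 1 µM ATP and 1 µM poly-EY substrate, 2 h at ambient temperature, 10-point dose-response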
T1 construct: human c-Met kinase domain P948-S1343; host or cells: baculovirus expression

c-Kit kinase = c-Kit kinase (Homo sapiens, UniProt P10721); test: c-Kit AlphaScreen kinase assay; type: biochemical; conditions: Table 4, inhibition as IC50 class;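 note: c-Kit kinase phosphorylating biotinylated poly(Glu,Tyr), ATP near its KM, 1 h reaction at ambient temperature, AlphaScreen chemiluminescence with streptavidin donor and anti-phosphotyrosine acceptor beads, 10-point inhibitor titration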
[2] = molecular target: T2, Flt-3 (baculovirus expressed human Flt-3 kinase domain R571-S993) (Homo sapiens, UniProt P36888); test: biochemical; conditions: Table 4, inhibition as IC50 class; read-out: flt3 IC50;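 note: Luciferase-coupled chemiluminescent kinase assay, activity read as percent ATP left after a 3 h reaction at room temperature, ATP near KM, 10-point dose-response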
T2 construct: human Flt-3 kinase domain R571-S993; host or cells: baculovirus expression
T2 sequence (P36888 571-993): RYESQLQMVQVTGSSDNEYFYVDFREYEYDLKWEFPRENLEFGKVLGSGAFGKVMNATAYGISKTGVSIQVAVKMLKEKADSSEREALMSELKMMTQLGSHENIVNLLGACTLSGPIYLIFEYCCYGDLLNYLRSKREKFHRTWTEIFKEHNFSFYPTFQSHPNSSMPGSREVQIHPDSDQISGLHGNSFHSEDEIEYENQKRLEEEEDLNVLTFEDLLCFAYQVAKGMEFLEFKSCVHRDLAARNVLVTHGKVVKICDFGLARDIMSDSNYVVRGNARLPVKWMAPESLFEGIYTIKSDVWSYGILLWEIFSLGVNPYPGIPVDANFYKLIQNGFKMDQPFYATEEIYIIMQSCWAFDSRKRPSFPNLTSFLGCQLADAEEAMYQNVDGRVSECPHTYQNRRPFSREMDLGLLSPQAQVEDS

[3] = molecular target: T3, Flt-4 (baculovirus expressed human Flt-4 kinase domain D725-R1298) (Homo sapiens, UniProt P35916); test: flt-4 Alphascreen Tyrosine Kinase assay; type: biochemical; conditions: Table 4, inhibition as IC50 class; read-out: flt4 IC50;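 note: AlphaScreen chemiluminescence read-out of biotinylated poly(Glu,Tyr) 4:1 phosphorylation via streptavidin donor and PY100 anti-phosphotyrosine acceptor beads, ATP near KM, 1 hr kinase reaction, 10-point dose-response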
T3 construct: human Flt-4 kinase domain D725-R1298; host or cells: baculovirus expression

[4] = molecular target: T4, KDR (baculovirus expressed human KDR kinase domain D807-V1356) (Homo sapiens, UniProt P35968); test: biochemical; conditions: Table 4, inhibition as IC50 class;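 note: Luciferase-coupled chemiluminescent kinase assay, activity read as percent ATP left after 4 h reaction at ambient temperature, ATP near KM, 10-point dose-response in 384-well plates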
T4 construct: human KDR kinase domain D807-V1356; host or cells: baculovirus expression
T4 sequence (P35968 807-1356): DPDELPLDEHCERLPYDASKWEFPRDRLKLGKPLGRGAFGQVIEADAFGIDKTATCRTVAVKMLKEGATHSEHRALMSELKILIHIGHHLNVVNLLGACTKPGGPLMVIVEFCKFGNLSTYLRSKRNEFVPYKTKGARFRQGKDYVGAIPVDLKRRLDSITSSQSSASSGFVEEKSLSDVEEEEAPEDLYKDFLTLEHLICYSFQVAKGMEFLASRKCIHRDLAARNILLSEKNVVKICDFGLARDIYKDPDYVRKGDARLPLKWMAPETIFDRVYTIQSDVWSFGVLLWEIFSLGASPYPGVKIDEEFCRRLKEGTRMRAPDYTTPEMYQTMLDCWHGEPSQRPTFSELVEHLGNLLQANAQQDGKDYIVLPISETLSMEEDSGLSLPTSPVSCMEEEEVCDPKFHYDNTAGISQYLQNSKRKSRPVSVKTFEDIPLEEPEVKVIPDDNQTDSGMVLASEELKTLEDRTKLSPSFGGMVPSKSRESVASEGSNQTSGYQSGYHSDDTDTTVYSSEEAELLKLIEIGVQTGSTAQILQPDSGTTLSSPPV
Method: Kinase activity and compound inhibition are investigated using one or more of the three assay formats described below. The ATP concentrations for each assay are selected to be close to the Michaelis-Menten constant (KM) for each individual kinase. Dose-response experiments are performed at 10 different inhibitor concentrations in a 384-well plate format.
KDR biochemical activity was assessed using a Luciferase-Coupled Chemiluminescent Kinase assay (LCCA) format. Kinase activity was measured as the percent ATP remaining following the kinase reaction. Remaining ATP was detected by luciferase-luciferin-coupled chemiluminescence. […] The mixture is incubated at ambient temperature for 4 hours after which 20 uL luciferase-luciferin mix is added and the chemiluminescent signal read using a Wallac Victor^2 reader.

Sequence of c-Kit kinase (P10721 26-976): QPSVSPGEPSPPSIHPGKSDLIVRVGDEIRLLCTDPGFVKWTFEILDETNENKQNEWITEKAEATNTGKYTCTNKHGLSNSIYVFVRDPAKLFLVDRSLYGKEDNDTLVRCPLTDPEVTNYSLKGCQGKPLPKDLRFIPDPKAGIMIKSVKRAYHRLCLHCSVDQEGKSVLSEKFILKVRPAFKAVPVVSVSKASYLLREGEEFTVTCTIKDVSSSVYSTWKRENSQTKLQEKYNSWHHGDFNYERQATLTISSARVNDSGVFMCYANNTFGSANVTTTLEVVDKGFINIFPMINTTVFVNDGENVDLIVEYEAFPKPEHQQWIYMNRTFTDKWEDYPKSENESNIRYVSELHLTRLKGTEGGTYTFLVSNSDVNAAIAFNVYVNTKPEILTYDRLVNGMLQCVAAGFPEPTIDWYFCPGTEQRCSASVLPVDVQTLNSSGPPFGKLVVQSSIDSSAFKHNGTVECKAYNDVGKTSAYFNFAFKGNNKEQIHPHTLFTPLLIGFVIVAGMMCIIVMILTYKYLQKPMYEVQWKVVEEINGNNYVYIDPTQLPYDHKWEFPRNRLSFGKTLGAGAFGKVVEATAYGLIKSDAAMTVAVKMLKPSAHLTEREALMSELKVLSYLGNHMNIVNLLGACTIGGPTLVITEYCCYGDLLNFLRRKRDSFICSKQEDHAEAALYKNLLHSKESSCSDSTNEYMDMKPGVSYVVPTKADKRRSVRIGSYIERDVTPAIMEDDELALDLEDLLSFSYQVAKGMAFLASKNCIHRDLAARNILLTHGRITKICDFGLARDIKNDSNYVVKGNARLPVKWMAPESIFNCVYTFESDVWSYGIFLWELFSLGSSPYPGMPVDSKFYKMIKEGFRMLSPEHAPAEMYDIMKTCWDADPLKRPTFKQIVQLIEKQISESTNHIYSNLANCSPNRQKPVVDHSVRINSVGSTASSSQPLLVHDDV
T3 sequence (P35916 725-1298 isoform P35916-1): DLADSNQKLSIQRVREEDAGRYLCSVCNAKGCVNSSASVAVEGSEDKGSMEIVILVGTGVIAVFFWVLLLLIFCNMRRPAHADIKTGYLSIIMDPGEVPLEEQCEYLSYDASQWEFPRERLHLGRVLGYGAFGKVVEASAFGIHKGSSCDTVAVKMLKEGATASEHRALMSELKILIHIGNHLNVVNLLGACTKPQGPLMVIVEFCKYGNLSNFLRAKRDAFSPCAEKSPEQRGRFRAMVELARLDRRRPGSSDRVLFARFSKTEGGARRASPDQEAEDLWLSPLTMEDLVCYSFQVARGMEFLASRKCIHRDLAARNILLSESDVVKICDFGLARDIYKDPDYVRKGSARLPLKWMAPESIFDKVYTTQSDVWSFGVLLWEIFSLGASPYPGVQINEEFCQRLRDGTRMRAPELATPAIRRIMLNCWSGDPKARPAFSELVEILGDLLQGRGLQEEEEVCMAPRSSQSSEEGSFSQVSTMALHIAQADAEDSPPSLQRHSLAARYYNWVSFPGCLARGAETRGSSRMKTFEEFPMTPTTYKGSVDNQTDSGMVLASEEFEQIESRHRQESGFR
T1 sequence (P08581 1011-1343 limits assumed): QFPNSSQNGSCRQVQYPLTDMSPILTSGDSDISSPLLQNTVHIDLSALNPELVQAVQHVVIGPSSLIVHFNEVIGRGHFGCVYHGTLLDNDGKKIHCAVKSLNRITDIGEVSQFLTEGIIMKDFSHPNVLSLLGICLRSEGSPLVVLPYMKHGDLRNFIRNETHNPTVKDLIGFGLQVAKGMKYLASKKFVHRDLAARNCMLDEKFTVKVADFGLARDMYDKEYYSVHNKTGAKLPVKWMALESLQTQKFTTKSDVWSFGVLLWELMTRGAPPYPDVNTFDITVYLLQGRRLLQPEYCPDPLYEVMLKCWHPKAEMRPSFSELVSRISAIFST

Q: `COc1cc2c(Oc3ccc(NC(=O)C(=O)N[C@@H]4CCCc5ccccc54)cc3F)ccnc2cc1OCC1CCNCC1` [Example 218, N-[3-fluoro-4-({6-(methyloxy)-7-[(piperidin-4-ylmethyl)oxy]quinolin-4-yl}oxy)phenyl]-N′-[(1R)-1,2,3,4-tetrahydronaphthalen-1-yl]ethanediamide] was tested. Which IC50 [1] did it give?
A: Its IC50 is under 0.05 µM.

Q: And the IC50 (c-Kit kinase)?
A: Its IC50 is 0.05 to 0.5 µM.

Q: What about the IC50 [2] of the same compound?
A: The IC50 was 0.05 to 0.5 µM.

Q: And the IC50 [3]?
A: The IC50 was under 0.05 µM.

Q: What about the IC50 [4] of the same compound?
A: Its IC50 is 0.05 to 0.5 µM.

Q: Which results are given for `COc1cc2c(Oc3ccc(NC(=O)C(=O)N[C@H]4CCCc5ccccc54)cc3F)ccnc2cc1OCC1CCNCC1` [Example 219, N-[3-fluoro-4-({6-(methyloxy)-7-[(piperidin-4-ylmethyl)oxy]quinolin-4-yl}oxy)phenyl]-N′-[(1S)-1,2,3,4-tetrahydronaphthalen-1-yl]ethanediamide]?
A: IC50 [1]: < 0.05 µM; IC50 (c-Kit kinase): < 0.05 µM; IC50 [2]: < 0.05 µM; IC50 [3]: < 0.05 µM; IC50 [4]: < 0.05 µM

Q: With `COc1cc2c(Oc3ccc(NC(=O)C(=O)NC4CCCC4)cc3F)ccnc2cc1OCC1CCNCC1` [Example 220, N-cyclopentyl-N′-[3-fluoro-4-({6-(methyloxy)-7-[(piperidin-4-ylmethyl)oxy]quinolin-4-yl}oxy)phenyl]ethanediamide] as the compound, how does the IC50 [1] read?
A: The IC50 was under 0.05 µM.

Q: And the IC50 (c-Kit kinase)?
A: The IC50 was 0.05 to 0.5 µM.

Q: And the IC50 [2]?
A: The IC50 was 0.05 to 0.5 µM.

Q: What about the IC50 [3] of the same compound?
A: The IC50 was 0.05 to 0.5 µM.

Q: And the IC50 [4]?
A: Its IC50 is 0.05 to 0.5 µM.

Q: `COc1cc2c(Oc3ccc(NC(=O)C(=O)NC(C)c4ccc(Br)cc4)cc3F)ccnc2cc1OCC1CCNCC1` (centres unmarked) [Example 221, N-[1-(4-bromophenyl)ethyl]-N′-[3-fluoro-4-({6-(methyloxy)-7-[(piperidin-4-ylmethyl)oxy]quinolin-4-yl}oxy)phenyl]ethanediamide] was tested. Which IC50 [1] did it give?
A: Its IC50 is under 0.05 µM.

Q: And the IC50 (c-Kit kinase)?
A: The IC50 was 0.05 to 0.5 µM.

Q: What about the IC50 [2] of the same compound?
A: The IC50 was 0.05 to 0.5 µM.

Q: And the IC50 [3]?
A: Its IC50 is 0.05 to 0.5 µM.

Q: And the IC50 [4]?
A: Its IC50 is 0.05 to 0.5 µM.

Q: `COc1cc2c(Oc3ccc(NC(=O)C(=O)NCc4cccc(F)c4F)cc3F)ccnc2cc1OCC1CCNCC1` [Example 225, N-[(2,3-difluorophenyl)methyl]-N′-[3-fluoro-4-({6-(methyloxy)-7-[(piperidin-4-ylmethyl)oxy]quinolin-4-yl}oxy)phenyl]ethanediamide] was tested. Which IC50 [1] did it give?
A: The IC50 was under 0.05 µM.

Q: What about the IC50 (c-Kit kinase) of the same compound?
A: The IC50 was 0.05 to 0.5 µM.

Q: And the IC50 [2]?
A: The IC50 was 0.05 to 0.5 µM.

Q: And the IC50 [3]?
A: Its IC50 is under 0.05 µM.

Q: What about the IC50 [4] of the same compound?
A: The IC50 was under 0.05 µM.

Q: What does the source list for `COc1cc2c(Oc3ccc(NC(=O)C(=O)NCCOc4ccccc4)cc3F)ccnc2cc1OCC1CCNCC1` [Example 226, N-[3-fluoro-4-({6-(methyloxy)-7-[(piperidin-4-ylmethyl)oxy]quinolin-4-yl}oxy)phenyl]-N′-[2-(phenyloxy)ethyl]ethanediamide]?
A: IC50 [1]: < 0.05 µM; IC50 (c-Kit kinase): < 0.05 µM; IC50 [2]: < 0.05 µM; IC50 [3]: < 0.05 µM; IC50 [4]: < 0.05 µM

Q: How did the IC50 [1] turn out when `COc1cc2c(Oc3ccc(NC(=O)C(=O)NCC(c4ccccc4)c4ccccc4)cc3F)ccnc2cc1OCC1CCNCC1` [Example 227, N-(2,2-diphenylethyl)-N′-[3-fluoro-4-({6-(methyloxy)-7-[(piperidin-4-ylmethyl)oxy]quinolin-4-yl}oxy)phenyl]ethanediamide] was run?
A: The IC50 was under 0.05 µM.

Q: And the IC50 (c-Kit kinase)?
A: Its IC50 is 0.05 to 0.5 µM.

Q: And the IC50 [2]?
A: Its IC50 is under 0.05 µM.

Q: What about the IC50 [3] of the same compound?
A: The IC50 was 0.05 to 0.5 µM.

Q: What about the IC50 [4] of the same compound?
A: The IC50 was 0.05 to 0.5 µM.

Q: Which IC50 [1] does the source give for `COc1ccc(CCNC(=O)C(=O)Nc2ccc(Oc3ccnc4cc(OCC5CCNCC5)c(OC)cc34)c(F)c2)cc1` [Example 228, N-[3-fluoro-4-({6-(methyloxy)-7-[(piperidin-4-ylmethyl)oxy]quinolin-4-yl}oxy)phenyl]-N′-{2-[4-(methyloxy)phenyl]ethyl}ethanediamide] here?
A: The IC50 was under 0.05 µM.

Q: What about the IC50 (c-Kit kinase) of the same compound?
A: The IC50 was 0.05 to 0.5 µM.

Q: And the IC50 [2]?
A: Its IC50 is 0.05 to 0.5 µM.

Q: What about the IC50 [3] of the same compound?
A: The IC50 was 0.05 to 0.5 µM.

Q: What about the IC50 [4] of the same compound?
A: The IC50 was 0.05 to 0.5 µM.

Q: Which results are given for `COc1cc2c(Oc3ccc(NC(=O)C(=O)NCC(C)c4ccccc4)cc3F)ccnc2cc1OCC1CCNCC1` (centres unmarked) [Example 229, N-[3-fluoro-4-({6-(methyloxy)-7-[(piperidin-4-ylmethyl)oxy]quinolin-4-yl}oxy)phenyl]-N′-(2-phenylpropyl)ethanediamide]?
A: IC50 [1]: < 0.05 µM; IC50 (c-Kit kinase): < 0.05 µM; IC50 [2]: < 0.05 µM; IC50 [3]: < 0.05 µM; IC50 [4]: < 0.05 µM

Q: With `COc1cc2c(Oc3ccc(NC(=O)C(=O)NCCc4ccc(Br)cc4)cc3F)ccnc2cc1OCC1CCNCC1` [Example 230, N-[2-(4-bromophenyl)ethyl]-N′-[3-fluoro-4-({6-(methyloxy)-7-[(piperidin-4-ylmethyl)oxy]quinolin-4-yl}oxy)phenyl]ethanediamide] as the compound, how does the IC50 [1] read?
A: The IC50 was under 0.05 µM.

Q: What about the IC50 (c-Kit kinase) of the same compound?
A: The IC50 was 0.05 to 0.5 µM.

Q: What about the IC50 [2] of the same compound?
A: Its IC50 is 0.05 to 0.5 µM.

Q: And the IC50 [3]?
A: Its IC50 is 0.05 to 0.5 µM.

Q: And the IC50 [4]?
A: The IC50 was under 0.05 µM.

Q: `CCN1CCC(COc2cc3nccc(Oc4ccc(NC(=O)C(=O)N5CCOC(c6ccccc6)C5)cc4F)c3cc2OC)CC1` (centres unmarked) [Example 231, N-(4-{[7-{[(1-ethylpiperidin-4-yl)methyl]oxy}-6-(methyloxy)quinolin-4-yl]oxy}-3-fluorophenyl)-2-oxo-2-(2-phenylmorpholin-4-yl)acetamide] was tested. Which IC50 [1] did it give?
A: The IC50 was under 0.05 µM.

Q: What about the IC50 (c-Kit kinase) of the same compound?
A: The IC50 was 0.05 to 0.5 µM.

Q: What about the IC50 [2] of the same compound?
A: Its IC50 is 0.05 to 0.5 µM.

Q: And the IC50 [3]?
A: The IC50 was 0.05 to 0.5 µM.

Q: And the IC50 [4]?
A: Its IC50 is 0.05 to 0.5 µM.

Q: For `COc1cc2c(Oc3ccc(NC(=O)C(=O)NCc4cc(F)cc(C(F)(F)F)c4)cc3F)ccnc2cc1OCC1CCNCC1` [Example 232, N-[3-fluoro-4-({6-(methyloxy)-7-[(piperidin-4-ylmethyl)oxy]quinolin-4-yl}oxy)phenyl]-N′-{[3-fluoro-5-(trifluoromethyl)phenyl]methyl}ethanediamide], which IC50 [1] is on record?
A: The IC50 was under 0.05 µM.

Q: And the IC50 (c-Kit kinase)?
A: Its IC50 is 0.05 to 0.5 µM.

Q: And the IC50 [2]?
A: The IC50 was under 0.05 µM.

Q: And the IC50 [3]?
A: The IC50 was 0.05 to 0.5 µM.

Q: What about the IC50 [4] of the same compound?
A: Its IC50 is under 0.05 µM.

Q: Which results are given for `COc1cc2c(Oc3ccc(NC(=O)C(=O)NCc4cc(F)cc(F)c4)cc3F)ccnc2cc1OCC1CCNCC1` [Example 233, N-[(3,5-difluorophenyl)methyl]-N′-[3-fluoro-4-({6-(methyloxy)-7-[(piperidin-4-ylmethyl)oxy]quinolin-4-yl}oxy)phenyl]ethanediamide]?
A: IC50 [1]: < 0.05 µM; IC50 (c-Kit kinase): < 0.05 µM; IC50 [2]: 0.05 to 0.5 µM; IC50 [3]: < 0.05 µM; IC50 [4]: < 0.05 µM

Q: Which results are given for `COc1cc2c(Oc3ccc(NC(=O)C(=O)NCc4cc(C(F)(F)F)ccc4Cl)cc3F)ccnc2cc1OCC1CCNCC1` [Example 234, N-{[2-chloro-5-(trifluoromethyl)phenyl]methyl}-N′-[3-fluoro-4-({6-(methyloxy)-7-[(piperidin-4-ylmethyl)oxy]quinolin-4-yl}oxy)phenyl]ethanediamide]?
A: IC50 [1]: < 0.05 µM; IC50 (c-Kit kinase): 0.05 to 0.5 µM; IC50 [2]: < 0.05 µM; IC50 [3]: 0.05 to 0.5 µM; IC50 [4]: < 0.05 µM

Q: Which IC50 [1] does the source give for `COc1cc2c(Oc3ccc(NC(=O)C(=O)NCc4cccc(C(F)(F)F)c4)cc3F)ccnc2cc1OCC1CCNCC1` [Example 239, N-[3-fluoro-4-({6-(methyloxy)-7-[(piperidin-4-ylmethyl)oxy]quinolin-4-yl}oxy)phenyl]-N′-{[3-(trifluoromethyl)phenyl]methyl}ethanediamide] here?
A: The IC50 was under 0.05 µM.

Q: What about the IC50 (c-Kit kinase) of the same compound?
A: Its IC50 is under 0.05 µM.

Q: And the IC50 [2]?
A: The IC50 was under 0.05 µM.

Q: What about the IC50 [3] of the same compound?
A: Its IC50 is 0.05 to 0.5 µM.

Q: What about the IC50 [4] of the same compound?
A: Its IC50 is under 0.05 µM.

Q: Which IC50 [1] does the source give for `COc1cc2c(Oc3ccc(NC(=O)C(=O)NCc4cccc(OC(F)(F)F)c4)cc3F)ccnc2cc1OCC1CCNCC1` [Example 240, N-[3-fluoro-4-({6-(methyloxy)-7-[(piperidin-4-ylmethyl)oxy]quinolin-4-yl}oxy)phenyl]-N′-({3-[(trifluoromethyl)oxy]phenyl}methyl)ethanediamide] here?
A: The IC50 was under 0.05 µM.

Q: And the IC50 (c-Kit kinase)?
A: The IC50 was under 0.05 µM.

Q: What about the IC50 [2] of the same compound?
A: The IC50 was under 0.05 µM.

Q: And the IC50 [3]?
A: The IC50 was under 0.05 µM.

Q: And the IC50 [4]?
A: The IC50 was under 0.05 µM.
